The source of these data is patent US11466029B2, “Compounds useful to treat influenza virus infections” (Nanjing Zhengxiang Pharmaceuticals Co., Ltd., priority 2019, dated 2022).

Each structure is given as a SMILES string. Like-named read-outs stand apart in the source and are kept apart here.

The target of series [1] is Influenza Virus CEN PAn enzyme (UniProt P03433). It is filed as biochemical. As to conditions: read-out: CEN IC50.
Series [2] can be described thus: Liver microsomal stability. Conditions: human, liver microsomes.
A short description of series [3]: Liver microsomal stability. Conditions: cynomolgus monkey, liver microsomes.
A short description of series [4]: Liver microsomal stability. Conditions: dog, liver microsomes.
Series [5] in a line: Liver microsomal stability. As to conditions: rat, liver microsomes.
A short description of series [6]: Liver microsomal stability. As to conditions: mouse, liver microsomes.
Another series has as its system IFV A/PR/8/34 (H1N1). The series is described as follows: microbe, parasite or virus in culture. Conditions: Influenza A virus, MDCK, 120 h. It is filed as cell-based.
The next series concerns IFV A/WSN/33 (H1N1). The series is described as follows: microbe, parasite or virus in culture. It is filed as cell-based. Conditions: Influenza A virus, MDCK, 120 h.
Another series relates to A/Weiss/43 (H1N1). In words: microbe, parasite or virus in culture. It is filed as cell-based. As to conditions: Influenza A virus, H1N1, MDCK, 120 h.
In series [7] the test system is A/California/07/2009 (H1N1)pdm09. In words: microbe, parasite or virus in culture. It is filed as cell-based. As to conditions: Influenza A virus, H1N1, MDCK, 120 h.
For the next series, the system named is A/Hongkong/8/68 (H3N2). In words: microbe, parasite or virus in culture. It is filed as cell-based. As to conditions: Influenza A virus, H3N2, MDCK, 120 h.
The next series has as its system B/Florida/78/2015. In words: microbe, parasite or virus in culture. As to conditions: Influenza B virus, 120 h. It is filed as cell-based.
Another series has as its system B/Lee/40. The series is described as follows: microbe, parasite or virus in culture. It is filed as cell-based. Conditions: Influenza B virus, 120 h.
A short description of another series: in vitro. Conditions: dog.
The conditions of series [8]: in vivo; cited from earlier work.
The next series has as its system influenza virus PR/8/34. Set-up: species or system Balb/c mice. As to conditions: in vivo.
Another series in a line: Pharmacokinetics in Rats. It is filed as in vivo. On the set-up: AUClast: unit not given here. Conditions: PO 3 mg/kg, non-fasted male SD rats, plasma B-1. Here is the method:
C-1 was administered to 3 non-fasted male SD rats via oral gavage at 3 mg/kg.

Series [9] in a line: Toxicity study, oral gavage once daily for 7 days. It is filed as in vivo, Sprague Dawley (SD) rats. As to the method: A toxicity study of C-1 was conducted in Sprague Dawley (SD) rats. C-1 at 20, 100 and 500 mg/kg or vehicle (0.5% w/v CMC-Na and 0.1% v/v Tween-80 in DI water) was administered via oral gavage to Sprague Dawley rats (7-9 weeks, about 250-300 grams each for males and about 200-250 grams each for females) once daily for 7 days. 8 females and 8 males in each dose group were used.

For series [10] the following is noted: PO 10 mg/kg, male CD-1 mice, plasma B-1.
Experimental: B-1 was administered to male CD-1 mice (4-6 weeks old, 20-30 grams, 3 animals each group) via intravenous (IV) bolus at 1 mg/kg and by oral gavage (PO) at 10 mg/kg. […] All animals had free access to food and water prior to dosing. Blood samples (˜0.03 mL each time point) were collected via the jugular vein into tubes containing sodium heparin as the anticoagulant at 0.033, 0.083, 0.25, 0.5, 1, 2, 4, 8 and 24 hours post dose for IV administration and 0.083, 0.25, 0.5, 1, 2, 4, 8 and 24 hours post dose for PO administration. The blood samples were then centrifuged for 5 minutes in a centrifuge refrigerated at 4° C. The resultant plasma samples were analyzed using LC/MS/MS to determine concentrations of B-1. Non-compartmental model with WinNonlin (Phoenix™, version 8.0) software was used to calculate pharmacokinetic (PK) parameters.
For series [11] the following is noted: for AUClast: PO 1 mg/kg, plasma B-1.
Experimental: B-1 was administered to male cynomolgus monkeys (2-5 years old, 2-5 kg, 3 animals each group) via intravenous (IV) bolus at 0.25 mg/kg and by oral gavage (PO) at 1 mg/kg; Animals in the IV group had free access to food and water (non-fasted) and animals in the PO group were fasted overnight prior to dosing (fasted). C-1 was administered to male cynomolgus monkeys (fasted or non-fasted, 3 each group) via oral gavage at 1 mg/kg. Blood samples (˜0.5 mL each time point) were collected via the jugular vein into tubes containing potassium ethylenediaminetetraacetic acid (K2EDTA) as the anticoagulant at 0.033, 0.083, 0.25, 0.5, 1, 2, 4, 8 and 24 hours post dose for IV administration and 0.083, 0.25, 0.5, 1, 2, 4, 8 and 24 hours post dose for PO administration. The blood samples were then centrifuged for 10 minutes in a centrifuge refrigerated at 2-8° C. The resultant plasma samples were analyzed using LC/MS/MS to determine concentrations of B-1. Non-compartmental model with WinNonlin (Phoenix™, version 6.1) software was used to calculate pharmacokinetic (PK) parameters.
Setting [12] is: B/Florida/78/2015, MDCK cells, 5 days, read-out: EC50.
Where [13] appears, read: B/Lee/40, MDCK cells, 5 days, read-out: EC50.

As for `O=C1c2c(O)c(=O)ccn2N(C2c3ccccc3[Se]Cc3c2ccc(F)c3F)C2COCCN12` (single isomer, unassigned) [Compound A-1-P2, 12-(7,8-Difluoro-6,11-Dihydrodibenzo[b,e]Selenepin-11-yl)-7-Hydroxy-3,4,12,12a-Tetrahydro-1H-[1,4]Oxazino[3,4-c]Pyrido[2,1-f][1,2,4]Triazine-6,8-Dione], the IC50 in [1] came out at 25 nM. Also, the half-life in series [2] turned out to be 60.9 h; in series [3], 1.42 h; in series [4], 6.25 h; in series [5], 2.88 h; in series [6] it was 4.77 h. Moreover, the intrinsic metabolic clearance (microsomal CLint) in [2] was 2.2 µL/min/mg; in series [3] it was 16 µL/min/mg; in series [4] it was 4.5 µL/min/mg; in series [5], 8.3 µL/min/mg; in series [6], 5.2 µL/min/mg.

Turning to `CP(C)(=O)c1cn2c(c(O)c1=O)C(=O)N1CCOCC1N2C1c2ccccc2SCc2c1ccc(F)c2F` (single isomer, unassigned) [Compound E-1a, 12-(7,8-difluoro-6,11-dihydrodibenzo[b,e]thiepin-11-yl)-9-(dimethylphosphoryl)-7-hydroxy-3,4,12,12a-tetrahydro-1H-[1,4]oxazino[3,4-c]pyrido[2,1-f][1,2,4]triazine-6,8-dione], the half-inhibitory concentration (IC50) in series [1] turned out to be 31 nM.

Take `CCC(CC)O[C@@H]1C=C(C(=O)O)C[C@H](N)[C@H]1NC(C)=O` [Oseltamivir acid, reference compound]: the EC50 with IFV A/PR/8/34 (H1N1) was over 100000 nM; with IFV A/WSN/33 (H1N1), over 100000 nM; in the series with A/Weiss/43 (H1N1), 476 nM; in [7], 231 nM; in the series on A/Hongkong/8/68 (H3N2) it was 20 nM; in the series with B/Florida/78/2015 (setting [12]), 8480 nM. Also, the 50% effective concentration (EC50) with B/Lee/40 (setting [13]) worked out at 749 nM. Moreover, in “in vitro”, the CC50 is over 100000 nM.

As for `COC(=O)OCOc1c2n(ccc1=O)N([C@@H]1c3ccccc3SCc3c1ccc(F)c3F)[C@@H]1COCCN1C2=O` [baloxavir marboxil], in [8], the oral availability entry is given as “poor oral availability”.

Take `O=C1c2c(O)c(=O)ccn2N([C@@H]2c3ccccc3SCc3c2ccc(F)c3F)[C@@H]2COCCN12` [Baloxavir acid, reference compound]: the IC50 in [1] was determined as 14 nM. Further, the EC50 in the series with IFV A/PR/8/34 (H1N1) came to 0.73 nM; in the series with IFV A/WSN/33 (H1N1) it was 0.44 nM; in [7], 0.66 nM; in the series on A/Hongkong/8/68 (H3N2), 1.7 nM; in the series on B/Florida/78/2015 (MDCK), 16 nM; in the series on B/Lee/40 (MDCK), 6.3 nM. Further, in “in vitro”, the CC50 came to 12000 nM. In addition, in [8], the oral availability result is listed as “poor oral availability”.

For `CCOC(=O)C1=C[C@@H](OC(CC)CC)[C@H](NC(C)=O)[C@@H](N)C1` [oseltamivir, reference compound], in the series on influenza virus PR/8/34 (mouse, po), the “improvement in body weight loss” value is “did not result in substantial improvement” and the mice died worked out at 60%.

Consider `CCP(=O)(CC)c1cn2c(c(O)c1=O)C(=O)N1CCOC[C@H]1N2[C@@H]1c2ccccc2SCc2c1ccc(F)c2F` [Compound F-1, (R)-9-(Diethylphosphoryl)-12-((S)-7,8-Difluoro-6,11-Dihydrodibenzo[b,e]-Thiepin-11-yl)-7-Hydroxy-3,4,12,12a-Tetrahydro-1H-[1,4]Oxazino[3,4-c]Pyrido[2,1-f][1,2,4]Triazine-6,8-Dione], for which the half-maximal effective concentration (EC50) is over 100 nM in the series with IFV A/PR/8/34 (H1N1); 57 nM in the series on IFV A/WSN/33 (H1N1); 22 nM in the series on A/Weiss/43 (H1N1); 125 nM in series [7]; 310 nM in the series on A/Hongkong/8/68 (H3N2); over 1000 nM in the series on B/Florida/78/2015 (setting [12]). Also, the concentration for a half-maximal effect (EC50) with B/Lee/40 (setting [13]) is over 1000 nM. Also, the CC50 in “in vitro” is over 100000 nM.

In the case of `COC(=O)OCOc1c2n(ccc1=O)N(C1c3ccccc3[Se]Cc3c1ccc(F)c3F)[C@@H]1COCCN1C2=O` (stereo partly drawn) [Compound C-1], the IC50 in series [1] is 1550 nM. Besides, in the series with influenza virus PR/8/34, the “antivirus efficacy in influenza virus PR/8/34 mouse model” value is “potent antivirus activity”. Besides, the “improvement in body weight loss” value in the series with influenza virus PR/8/34 (mouse, po) is on record as “significant dose-dependent improvement”. In addition, in the series on influenza virus PR/8/34 (mouse, po), the survival result is given as “survived throughout the study”. The body weight loss result with influenza virus PR/8/34 (mouse, po, 5 mg/kg) is recorded as “minimal”. The AUClast in “Pharmacokinetics in Rats” came out at 280; in [10] it was 2834; in [11] (fasted male cynomolgus monkeys), 414; in series [11] (non-fasted male cynomolgus monkeys) it was 400. Moreover, in series [9] (both sexes, Sprague Dawley, rat, in vivo, oral gavage once daily for 7 days, read-out: maximum tolerated dose (MTD)), the maximal tolerated dose (MTD) at 7 days is over 500 mg/kg/day. In series [9] (in words, 20, 100 and 500 mg/kg oral gavage once daily for 7 days), the “toxic findings (clinical observation, body weight, food consumption, gross pathology)” value was “No C-1-related toxic findings”. In addition, the tolerability result in [9] (in words, oral gavage once daily for 7 days) is reported as “well tolerated”. In addition, in [11] (in words, cynomolgus monkeys, fasted vs non-fasted), the “food effect / impact of feeding condition on oral absorption” value was “did not impact oral absorption”.

For the compound `CP(C)(=O)c1cn2c(c(O)c1=O)C(=O)N1CCOC[C@H]1N2[C@@H]1c2ccccc2SCc2c1ccc(F)c2F` [Compound E-1c, (R)-12-((S)-7,8-difluoro-6,11-dihydrodibenzo[b,e]thiepin-11-yl)-9-(dimethylphosphoryl)-7-hydroxy-3,4,12,12a-tetrahydro-1H-[1,4]oxazino[3,4-c]pyrido[2,1-f][1,2,4]triazine-6,8-dione], the EC50 was 68 nM with IFV A/PR/8/34 (H1N1); 58 nM in the series on IFV A/WSN/33 (H1N1); 133 nM with A/Weiss/43 (H1N1); 129 nM in [7]; 207 nM in the series on A/Hongkong/8/68 (H3N2); over 1000 nM in the series with B/Florida/78/2015 (setting [12]). Moreover, the EC50 with B/Lee/40 (setting [13]) was over 1000 nM. Further, in the series “in vitro”, the CC50 is over 100000 nM.

Take `CP(C)(=O)c1cn2c(c(O)c1=O)C(=O)N1CCOCC1N2C1c2ccccc2SCc2c1ccc(F)c2F` (single isomer, unassigned) [Compound E-1b, 12-(7,8-difluoro-6,11-dihydrodibenzo[b,e]thiepin-11-yl)-9-(dimethylphosphoryl)-7-hydroxy-3,4,12,12a-tetrahydro-1H-[1,4]oxazino[3,4-c]pyrido[2,1-f][1,2,4]triazine-6,8-dione]: the IC50 in [1] was 32 nM.

For `O=C1c2c(O)c(=O)ccn2N(C2c3ccccc3[Se]Cc3c2ccc(F)c3F)C2COCCN12` (single isomer, unassigned) [Compound A-1-P1, 12-(7,8-Difluoro-6,11-Dihydrodibenzo[b,e]Selenepin-11-yl)-7-Hydroxy-3,4,12,12a-Tetrahydro-1H-[1,4]Oxazino[3,4-c]Pyrido[2,1-f][1,2,4]Triazine-6,8-Dione], the IC50 in series [1] was determined as 42 nM.
